# Biological target: T1, human calcium receptor (Homo sapiens, UniProt P41180)
# T1 construct: expressed in transfected cells; host or cells: HEK 293 4.0-7
# T1 sequence (P41180 20-1078): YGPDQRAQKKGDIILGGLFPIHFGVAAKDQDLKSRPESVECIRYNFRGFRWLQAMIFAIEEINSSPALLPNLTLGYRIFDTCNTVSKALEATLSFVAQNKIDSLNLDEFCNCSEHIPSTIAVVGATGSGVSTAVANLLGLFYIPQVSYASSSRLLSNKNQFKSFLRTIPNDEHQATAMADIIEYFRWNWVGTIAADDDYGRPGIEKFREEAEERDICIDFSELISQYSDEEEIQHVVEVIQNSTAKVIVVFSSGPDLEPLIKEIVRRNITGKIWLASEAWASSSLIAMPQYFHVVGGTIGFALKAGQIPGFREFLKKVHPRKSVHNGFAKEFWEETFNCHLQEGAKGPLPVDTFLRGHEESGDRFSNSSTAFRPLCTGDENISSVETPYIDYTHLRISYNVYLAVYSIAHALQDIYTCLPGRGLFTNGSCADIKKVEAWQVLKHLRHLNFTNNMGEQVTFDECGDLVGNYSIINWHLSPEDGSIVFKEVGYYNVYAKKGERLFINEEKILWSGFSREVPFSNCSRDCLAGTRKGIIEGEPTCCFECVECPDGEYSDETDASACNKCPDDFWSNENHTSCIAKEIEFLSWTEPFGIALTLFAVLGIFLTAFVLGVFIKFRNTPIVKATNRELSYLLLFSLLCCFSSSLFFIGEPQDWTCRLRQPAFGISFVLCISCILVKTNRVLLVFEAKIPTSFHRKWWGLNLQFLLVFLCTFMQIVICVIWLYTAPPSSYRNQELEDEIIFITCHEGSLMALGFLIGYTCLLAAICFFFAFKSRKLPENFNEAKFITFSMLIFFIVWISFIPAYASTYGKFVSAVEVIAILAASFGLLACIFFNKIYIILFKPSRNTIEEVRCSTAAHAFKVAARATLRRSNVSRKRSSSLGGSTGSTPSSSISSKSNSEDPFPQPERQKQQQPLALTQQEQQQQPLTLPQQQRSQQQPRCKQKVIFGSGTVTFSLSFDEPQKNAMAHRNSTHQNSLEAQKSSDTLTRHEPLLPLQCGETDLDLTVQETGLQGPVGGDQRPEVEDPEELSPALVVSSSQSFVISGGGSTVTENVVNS
# Test: Calcium Receptor Inhibitor Assay (block of intracellular Ca2+ increase elicited by extracellular Ca2+, fluo-3)
# Format: cell-based
# Parameters: key: Compounds having an IC50 greater than 30 uM were considered to be inactive; Compounds having an IC50 greater than 30 uM were considered to be inactive
# Conditions: HEK 293 4.0-7 cells stably expressing the human calcium receptor; at the concentrations used
# Description: (I) Calcium Receptor Inhibitor Assay
# Calcilytic activity was measured by determining the IC50 of the test compound for blocking increases of intracellular Ca^2+ elicited by extracellular Ca^2+ in HEK 293 4.0-7 cells stably expressing the human calcium receptor. HEK 293 4.0-7 cells were constructed as described by Rogers et al., J. Bone Miner. Res. 10 Suppl. 1:3483, 1995 (hereby incorporated by reference herein). Intracellular Ca^2+ increases were elicited by increasing extracellular Ca^2+ from 1 to 1.75 mM. Intracellular Ca^2+ was measured using fluo-3, a fluorescent calcium indicator.
# The procedure was as follows:
# 1. Cells were maintained in T-150 flasks in selection media (DMEM supplemented with 10% fetal bovine serum and 200 ug/mL hygromycin B), under 5% CO2:95% air at 37° C. and were grown up to 90% confluency.
# 2. The medium was decanted and the cell monolayer was washed twice with phosphate-buffered saline (PBS) kept at 37° C. After the second wash, 6 mL of 0.02% EDTA in PBS was added and incubated for 4 minutes at 37° C. Following the incubation, cells were dispersed by gentle agitation.
# 3. Cells from 2 or 3 flasks were pooled and pelleted (100×g). The cellular pellet was resuspended in 10-15 mL of SPF-PCB+ and pelleted again by centrifugation. This washing was done twice.
# Sulfate- and phosphate-free parathyroid cell buffer (SPF-PCB) contains 20 mM Na-Hepes, pH 7.4, 126 mM NaCl, 5 mM KCl, and 1 mM MgCl2. SPF-PCB was made up and stored at 4° C. On the day of use, SPF-PCB was supplemented with 1 mg/mL of D-glucose and 1 mM CaCl2 and then split into two fractions. To one fraction, bovine serum albumin (BSA; fraction V, ICN) was added at 5 mg/mL (SPF-PCB+). This buffer was used for washing, loading and maintaining the cells. The BSA-free fraction was used for diluting the cells in the cuvette for measurements of fluorescence.
# 4. The pellet was resuspended in 10 mL of SPF-PCB+ containing 2.2 uM fluo-3 (Molecular Probes) and incubated at room temperature for 35 minutes.
# 5. Following the incubation period, the cells were pelleted by centrifugation. The resulting pellet was washed with SPF-PCB+. After this washing, cells were resuspended in SPF-PCB+ at a density of 1-2×10^6 cells/mL.
# 6. For recording fluorescent signals, 300 uL of cell suspension were diluted in 1.2 mL of SPF buffer containing 1 mM CaCl2 and 1 mg/mL of D-glucose. Measurements of fluorescence were performed at 37° C. with constant stirring using a spectrofluorimeter. Excitation and emission wavelengths were measured at 485 and 535 nm, respectively. To calibrate fluorescence signals, digitonin (5 mg/mL in ethanol) was added to obtain Fmax, and the apparent Fmin was determined by adding Tris-EGTA (2.5 M Tris-Base, 0.3 M EGTA). The concentration of intracellular calcium was calculated using the following equation:
# Intracellular calcium=(F−Fmin/Fmax)×Kd; where Kd=400 nM.
# 7. To determine the potential calcilytic activity of test compounds, cells were incubated with test compound (or vehicle as a control) for 90 seconds before increasing the concentration of extracellular Ca^2+ from 1 to 2 mM. Calcilytic compounds were detected by their ability to block, in a concentration-dependent manner, increases in the concentration of intracellular Ca^2+ elicited by extracellular Ca^2+.
# In general, those compounds having lower IC50 values in the Calcium Receptor Inhibitor Assay are more preferred compounds. […] The present examples were tested except for Examples 11, 20, 28, 44 and 107.
row,Structure (SMILES),IC50 for blocking increases of intracellular Ca2+ elicited by extracellular Ca2+ (calcilytic activity)
1,"CCc1c(N2CCCCC2)nc(-c2cccc(F)c2O)n(CCc2cccc(F)c2)c1=O [Example 27, 5-Ethyl-2-(3-fluoro-2-hydroxyphenyl)-3-[2-(3-fluorophenyl)ethyl]-6-(1-Piperidinyl)-4(3H)-pyrimidinone]",inactive
2,CCc1c(CCC2CCCCC2)nc(-c2cccc(F)c2O)n(CCc2ccccc2F)c1=O [Example 46],inactive
3,"COc1ccccc1-c1nc(C)c(-c2cccs2)c(=O)n1CCc1ccccc1 [Example 100, 6-Methyl-2-[2-(methyloxy)phenyl]-3-(2-phenylethyl)-5-(2-thienyl)-4(3H)-pyrimidinone]",inactive
4,"Cc1nc(-c2ccccc2O)n(CCc2ccccc2)c(=O)c1N [Example 123, 5-Amino-2-(2-hydroxyphenyl)-6-methyl-3-(2-phenylethyl)-4(3H)-pyrimidinone]",inactive
5,"Cc1nc(-c2ccccc2O)n(CCc2ccccc2)c(=O)c1NC(=O)C(C)C [Example 127, N-[2-(2-Hydroxyphenyl)-4-methyl-6-oxo-1-(2-phenylethyl)-1,6-dihydro-5-pyrimidinyl]-2-methylpropanamide]",inactive
6,"Cc1nc(-c2ccccc2O)n(CCc2ccccc2)c(=O)c1-c1ccc(-c2nnn[nH]2)s1 [Example 214, 2-(2-hydroxyphenyl)-6-methyl-3-(2-phenylethyl)-5-[5-(1H-tetrazol-5-yl)-2-thienyl]-4(3H)-pyrimidinone]",inactive
7,"Cc1nc(-c2ccccc2O)n(CCc2ccccc2)c(=O)c1-c1ccc(CN)s1 [Example 215, 5-[5-(Aminomethyl)-2-thienyl]-2-(2-hydroxyphenyl)-6-methyl-3-(2-phenylethyl)-4(3H)-pyrimidinone]",inactive
8,"CNCc1ccc(-c2c(C)nc(-c3ccccc3O)n(CCc3ccccc3)c2=O)s1 [Example 216, 2-(2-hydroxyphenyl)-6-methyl-5-{5-[(methylamino)methyl]-2-thienyl}-3-(2-phenylethyl)-4(3H)-pyrimidinone]",inactive

# Reference: patent publication US20090137557A1, “Calcilytic Compounds” (priority 2005, published 2009)
